Laboratory results as given in patent US20210387952A1, “SOLID STATE FORMS OF D[…] PROCESS FOR PREPARATION THEREOF” (TEVA PHARMACEUTICALS INTERNATIONAL GMBH, priority 2018, published 2021).

Assay: Solid state (polymorphic and chemical) stability on storage

Compound: O=C(O)CNC(=O)c1c(O)n(C2CCCCC2)c(=O)n(C2CCCCC2)c1=O [Form 3, 2-[(1,3-dicyclohexyl-2,4,6-trioxo-1,3-diazinane-5-carbonyl)amino]acetic acid]
- polymorphic and chemical stability (crystalline solid form): polymorphically and chemically stable
- storage time over which the form is stable (stored in closed bottles): at least 2 weeks
